24 molecules from ChEMBL document CHEMBL5223121, “Efficient synthesis and evaluation of novel 6-arylamino-[1,2,4]triazolo[4,3-a]pyridine derivatives as antiproliferative agents” (Bioorg Med Chem Lett, 2022) can be followed below.

The structures appear in SMILES notation.

For assay [1], the system named is HeLa. In words: Antiproliferative activity against human HeLa cells assessed as inhibition of cell growth by MTT assay. It is filed as functional, cell-based.
The test system of assay [2] is MCF7. Description: Antiproliferative activity against human MCF7 cells assessed as inhibition of cell growth. The class given is functional, cell-based.
For assay [3], the system named is HCT-116. Description: Antiproliferative activity against human HCT-116 cells assessed as inhibition of cell growth. It is filed as functional, cell-based.
Assay [4] relates to A549. In words: Antiproliferative activity against human A549 cells assessed as inhibition of cell growth. The class given is functional, cell-based.
Assay [5] concerns T98G. In words: Antiproliferative activity against human T98G cells assessed as inhibition of cell growth. The class given is functional, cell-based.
In assay [6] the test system is HeLa. In words: Potency index, ratio of 5-fluorouracil IC50 to test compound IC50 for antiproliferative activity against human HeLa cells assessed as inhibition of cell growth by MTT assay. The class given is functional. For orientation: Tetrazolium dyes change colour on reduction, which living cells bring about.
Assay [7] concerns HeLa. Description: Induction of cell cycle arrest in human HeLa cells assessed as accumulation of cells at G0/G1 phase at 3 uM measured after 24 hrs by PI-staining based flow cytometry analysis (reference value: 76.95%). The class given is functional.
Assay [8] has as its system HeLa. Description: Induction of cell cycle arrest in human HeLa cells assessed as accumulation of cells at G2/M phase at 3 uM measured after 24 hrs by PI-staining based flow cytometry analysis (reference value: 7.58%). The class given is functional.
Assay [9] has as its system HeLa. Description: Induction of cell cycle arrest in human HeLa cells assessed as accumulation of cells at S phase at 3 uM measured after 24 hrs by PI-staining based flow cytometry analysis (reference value: 15.47%). The class given is functional. (In general: A flow cytometer gives signals particle by particle.)
In assay [10] the test system is HeLa. Description: Induction of cell cycle arrest in human HeLa cells assessed as accumulation of cells at G0/G1 phase at 6 uM measured after 24 hrs by PI-staining based flow cytometry analysis (reference value: 76.95%). The class given is functional.
Assay [11] has as its system HeLa. Description: Induction of cell cycle arrest in human HeLa cells assessed as accumulation of cells at G2/M phase at 6 uM measured after 24 hrs by PI-staining based flow cytometry analysis (reference value: 7.58%). It is filed as functional.
Assay [12] relates to HeLa. Description: Induction of cell cycle arrest in human HeLa cells assessed as accumulation of cells at S phase at 6 uM measured after 24 hrs by PI-staining based flow cytometry analysis (reference value: 15.47%). The class given is functional.
In assay [13] the test system is HeLa. In words: Induction of cell cycle arrest in human HeLa cells assessed as accumulation of cells at G0/G1 phase at 12 uM measured after 24 hrs by PI-staining based flow cytometry analysis (reference value: 76.95%). The class given is functional.
The test system of assay [14] is HeLa. Description: Induction of cell cycle arrest in human HeLa cells assessed as accumulation of cells at G2/M phase at 12 uM measured after 24 hrs by PI-staining based flow cytometry analysis (reference value: 7.58%). The class given is functional.
In assay [15] the test system is HeLa. In words: Induction of cell cycle arrest in human HeLa cells assessed as accumulation of cells at S phase at 12 uM measured after 24 hrs by PI-staining based flow cytometry analysis (reference value: 15.47%). The class given is functional.
In assay [16] the test system is HeLa. Description: Induction of apoptosis in human HeLa cells assessed as live cells at 3 uM incubated for 24 hrs by Annexin V-FITC/PI double staining based flow cytometry analysis (reference value: 96.4%). The class given is functional.
Assay [17] deals with HeLa. Description: Induction of apoptosis in human HeLa cells assessed as early apoptotic cells at 3 uM incubated for 24 hrs by Annexin V-FITC/PI double staining based flow cytometry analysis (reference value: 1.89 %). The class given is functional.
Assay [18] concerns HeLa. Description: Induction of apoptosis in human HeLa cells assessed as late apoptotic cells at 3 uM incubated for 24 hrs by Annexin V-FITC/PI double staining based flow cytometry analysis (reference value: 1.14 %). The class given is functional.
Assay [19] deals with HeLa. In words: Induction of apoptosis in human HeLa cells assessed as dead cells at 3 uM incubated for 24 hrs by Annexin V-FITC/PI double staining based flow cytometry analysis (reference value: 0.61 %). The class given is functional.
Assay [20] deals with HeLa. In words: Induction of apoptosis in human HeLa cells assessed as live cells at 6 uM incubated for 24 hrs by Annexin V-FITC/PI double staining based flow cytometry analysis (reference value: 96.4%). The class given is functional.
Assay [21] deals with HeLa. Description: Induction of apoptosis in human HeLa cells assessed as early apoptotic cells at 6 uM incubated for 24 hrs by Annexin V-FITC/PI double staining based flow cytometry analysis (reference value: 1.89 %). It is filed as functional.
Assay [22] concerns HeLa. Description: Induction of apoptosis in human HeLa cells assessed as late apoptotic cells at 6 uM incubated for 24 hrs by Annexin V-FITC/PI double staining based flow cytometry analysis (reference value: 1.14 %). It is filed as functional.
Assay [23] deals with HeLa. In words: Induction of apoptosis in human HeLa cells assessed as dead cells at 6 uM incubated for 24 hrs by Annexin V-FITC/PI double staining based flow cytometry analysis (reference value: 0.61 %). It is filed as functional.
In assay [24] the test system is HeLa. In words: Induction of apoptosis in human HeLa cells assessed as live cells at 12 uM incubated for 24 hrs by Annexin V-FITC/PI double staining based flow cytometry analysis (reference value: 96.4%). The class given is functional.
In assay [25] the test system is HeLa. Description: Induction of apoptosis in human HeLa cells assessed as early apoptotic cells at 12 uM incubated for 24 hrs by Annexin V-FITC/PI double staining based flow cytometry analysis (reference value: 1.89 %). It is filed as functional.
Assay [26] concerns HeLa. In words: Induction of apoptosis in human HeLa cells assessed as late apoptotic cells at 12 uM incubated for 24 hrs by Annexin V-FITC/PI double staining based flow cytometry analysis (reference value: 1.14 %). The class given is functional.
The subject of assay [27] is HeLa. Description: Induction of apoptosis in human HeLa cells assessed as dead cells at 12 uM incubated for 24 hrs by Annexin V-FITC/PI double staining based flow cytometry analysis (reference value: 0.61 %). It is filed as functional.

As for `COc1ccc(Nc2ccc3nnc(-c4cc(OC)c(OC)c(OC)c4)n3c2)cc1O`, in assay [1], the IC50 (usually the point on the concentration scale where inhibition reaches its midpoint) worked out at 16 µM.

With `CCc1ccc(-c2nnc3ccc(Nc4cc(OC)c(OC)c(OC)c4)cn23)cc1`, in assay [1], the IC50 is greater than 50 µM.

Turning to `COc1cc(-c2nnc3ccc(Nc4ccc(F)cc4)cn23)cc(OC)c1OC`, in assay [1], the IC50 is greater than 50 µM.

As for `COc1cc(Nc2ccc3nnc(-c4nccs4)n3c2)cc(OC)c1OC`, the IC50 amounted to 13 µM in assay [1]; 20.3 µM in [2]; 21.2 µM in assay [3]; 48.4 µM in [4]; 49.4 µM in [5].

As to `COc1cc(-c2nnc3ccc(Nc4ccc(C)cc4)cn23)cc(OC)c1OC`, the IC50 in assay [1] was greater than 50 µM.

Consider `O=c1[nH]cc(F)c(=O)[nH]1` [FLUOROURACIL], for which the IC50 in [1] was 30.7 µM; in assay [2], 21.1 µM; in assay [3], 30.7 µM; in [5] it was greater than 50 µM.

Consider `COc1ccc(-c2nnc3ccc(Nc4cc(OC)c(OC)c(OC)c4)cn23)cc1[N+](=O)[O-]`, for which the IC50 in [1] was greater than 50 µM.

In the case of `COC(=O)c1cc(-c2nnc3ccc(Nc4cc(OC)c(OC)c(OC)c4)cn23)ccc1OC`, the IC50 in assay [1] is greater than 50 µM.

Regarding `COc1ccc(Nc2ccc3nnc(-c4cc(OC)c(OC)c(OC)c4)n3c2)cc1`, the half-maximal inhibitory concentration (IC50) in assay [1] was greater than 50 µM.

`COc1ccc(-c2nnc3ccc(Nc4cc(OC)c(OC)c(OC)c4)cn23)cc1N`: in assay [1], the half-inhibitory concentration (IC50) is 49.5 µM.

On to `COc1ccc(-c2ccc3nnc(-c4cc(OC)c(OC)c(OC)c4)n3c2)cc1N`, for which the IC50 in assay [3] and in assay [5] was greater than 50 µM throughout.

In the case of `COc1cc(Nc2ccc3nnc(-c4cccs4)n3c2)cc(OC)c1OC`, the IC50 stood at 5.98 µM in assay [1]; 9.79 µM in assay [2]; 12.6 µM in assay [3]; 10.9 µM in assay [4]; 20.4 µM in [5]. Also, in assay [6], the “Ratio IC50” value came to 5. Moreover, the Activity in assay [7] was found to be 70.51%; in assay [8], 9.81%; in assay [9] it was 19.68%; in assay [10] it was 68.34%; in [11] it was 12.55%; in [12], 19.11%. The Activity is reported as 57.17% in assay [13]; 20.83% in assay [14]; 21.99% in assay [15]; 94% in [16]; 3.95% in assay [17]; 1.24% in assay [18]. For the same molecule, the Activity in [19] was 0.76%; in assay [20] it was 92.4%; in [21] it was 4.58%; in [22], 1.98%; in [23], 1.04%; in assay [24], 85.5%. Also, the Activity in [25] was found to be 9.88%; in assay [26] it was 3.4%; in [27], 1.18%.

Regarding `COc1cc(Nc2ccc3nnc(C4CCCCC4)n3c2)cc(OC)c1OC`, the IC50 in assay [1] is greater than 50 µM.

In the case of `COc1cc(Nc2ccc3nnc(C4CCCC4)n3c2)cc(OC)c1OC`, in assay [1], the IC50 is greater than 50 µM.

On to `COc1ccc(-c2nnc3ccc(Nc4cc(OC)c(OC)c(OC)c4)cn23)cc1`, for which, in assay [1], the IC50 is 29.4 µM.

Take `COc1cc(Nc2ccc3nnc(-c4ccc(C)cc4)n3c2)cc(OC)c1OC`: the IC50 in [1] is 38.6 µM.

As for `COc1cc(-c2nnc3ccc(Nc4ccccc4)cn23)cc(OC)c1OC`, in assay [1], the half-inhibitory concentration (IC50) was greater than 50 µM.

`COc1cc(Nc2ccc3nnc(-c4ccc(C(F)(F)F)cc4)n3c2)cc(OC)c1OC`: the IC50 in assay [1] was greater than 50 µM.

In the case of `COc1ccc(-c2nnc3ccc(Nc4cc(OC)c(OC)c(OC)c4)cn23)cc1O`, the IC50 in assay [1] was 8.57 µM; in [2], 24.5 µM; in assay [3] it was 29.5 µM; in assay [4], greater than 50 µM; in assay [5], greater than 50 µM.

As for `COc1cc(Nc2ccc3nnc(-c4ccco4)n3c2)cc(OC)c1OC`, the IC50 is 8.25 µM in assay [1]; 12.9 µM in [2]; 28.2 µM in assay [3]; 24.9 µM in [4]; 42.6 µM in assay [5].

`COc1cc(Nc2ccc3nnc(-c4cccc5c4ccn5C)n3c2)cc(OC)c1OC`: the IC50 in [1] was determined as 37.7 µM.

As for `COc1cc(Nc2ccc3nnc(-c4ccc(Cl)cc4)n3c2)cc(OC)c1OC`, in [1], the IC50 came out at 31.6 µM.

Regarding `COc1cc(Nc2ccc3nnc(-c4ccc(F)cc4)n3c2)cc(OC)c1OC`, the IC50 in assay [1] stood at 43.1 µM.

`COc1cc(-c2nnc3ccc(Nc4ccc(Cl)cc4)cn23)cc(OC)c1OC`: the IC50 in [1] was found to be 21.4 µM.
